Assay results: US9920045B2, “Solid state forms of a PDE10 inhibitor” (Omeros Corporation, priority 2015, dated 2018)

Columns and labels:
[1] = Dynamic vapor sorption (gravimetric moisture sorption analysis); type: physicochemical; conditions: for hygroscopicity by moisture sorption analysis / moisture absorbed at 60% RH / moisture absorbed at 90% RH: 25° C.; for XRPD of the post moisture sorption sample: dried at 0% RH and 60° C. for 2 hours after sorption; for moisture absorbed at 60% RH / moisture absorbed at 90% RH: moisture sorption
Procedure: Gravimetric moisture sorption experiments were carried out on all materials by first holding the sample at 40% RH and 25° C. until an equilibrium weight was reached or for a maximum of four hours. The sample was then subjected to an isothermal (25° C.) adsorption scan from 40 to 90% RH in steps of 10%. The sample was allowed to equilibrate to an asymptotic weight at each point for a maximum of four hours. Following adsorption, a desorption scan from 85 to 5% RH (at 25° C.) was run in steps of −10%, again allowing a maximum of four hours for equilibration to an asymptotic weight. An adsorption scan was then performed from 0% RH to 40% RH in steps of +10% RH. The sample was then dried for no less than two hours at 60° C. and the resulting solid analyzed by XRPD.
Compound (I), Form F, was further characterized by thermal analysis (DSC and TGA), Karl Fischer titration, and DVS. […] (FIG. 5). […] (FIG. 6). The weight loss observed on TGA corresponds to the melt on DSC. […] The material absorbed 2.0 wt % moisture at 60% RH and 2.4 wt % moisture at 90% RH (FIG. 7). […] Karl Fisher analysis of the sample indicates a moisture content of 0.6 wt %, which was performed when lab humidity was around 20% RH.
Compound (I), Shifted Form F, was further characterized by thermal analysis (DSC and TGA), Karl Fischer titration, and DVS. […] (FIG. 9). […] (FIG. 10). […] The material absorbs 2.4 wt % moisture at 60% RH and 2.9 wt % moisture at 90% RH (FIG. 11). […] The water content by KF is higher than the weight loss detected by TGA. It is possible that some moisture was slowly carried away by nitrogen stream and not reflected in the weight loss attributed to the thermal event. Characterization of shifted Form F was performed when lab humidity was between 50-60% RH.

[2] = Drying study / ambient exposure, form followed by XRPD; type: physicochemical
Procedure: To understand a change of Form F to shifted Form F, a drying study was conducted wherein a variable hydrate having shifted Form F was dried overnight under vacuum at 50° C. […] This study confirms that Form F absorbs moisture from the atmosphere and depending upon the relative humidity of the environment either remains Form F or converts to Shifted Form F.
XRPD patterns were collected with a PANalytical CubiX-Pro XRD diffractometer using an incident beam of Cu radiation produced using an Optix long, fine-focus source. An elliptically graded multilayer mirror was used to focus CuKα X-rays (1.54 Å) through the specimen and onto the detector. Prior to the analysis, a silicon specimen (NIST SRM 640d) was analyzed to verify the observed position of the Si 111 peak is consistent with the NIST-certified position. A specimen of the sample was sandwiched between 3-μm-thick films and analyzed in transmission geometry. A beam-stop, short antiscatter extension, and antiscatter knife edge were used to minimize the background generated by air. Soller slits for the incident and diffracted beams were used to minimize broadening from axial divergence. Diffraction patterns were collected using a scanning position-sensitive detector (X'Celerator) located 240 mm from the specimen and Data Collector software v. 2.2b. The tube power was set to 45 kV and 40 mA. […]

Structure (SMILES): CCOC(C(=O)c1ccc(-c2cc(OC)c(Cl)c(OC)c2)o1)c1ccc(-c2nnc(C)s2)cc1 (stereo not shown) [Form F, 1-(5-(4-chloro-3,5-dimethoxyphenyl)furan-2-yl)-2-ethoxy-2-(4-(5-methyl-1,3,4-thiadiazol-2-yl)phenyl)ethanone]
- hygroscopicity by moisture sorption analysis [1]: moderately hygroscopic
- XRPD of the post moisture sorption sample [1]: consistent with Form F
- moisture absorbed at 60% RH [1]: 2.0 wt %
- moisture absorbed at 90% RH [1]: 2.4 wt %
- form after exposure to ambient conditions ([2]; dried material exposed to ambient conditions for 5 days): converted back to shifted Form F

Structure (SMILES): CCOC(C(=O)c1ccc(-c2cc(OC)c(Cl)c(OC)c2)o1)c1ccc(-c2nnc(C)s2)cc1 (stereo not shown) [shifted Form F, 1-(5-(4-chloro-3,5-dimethoxyphenyl)furan-2-yl)-2-ethoxy-2-(4-(5-methyl-1,3,4-thiadiazol-2-yl)phenyl)ethanone]
- hygroscopicity by moisture sorption analysis [1]: moderately hygroscopic
- XRPD of the post moisture sorption sample [1]: consistent with shifted Form F
- moisture absorbed at 60% RH [1]: 2.4 wt %
- moisture absorbed at 90% RH [1]: 2.9 wt %
- XRPD of the dried solid ([2]; dried overnight under vacuum at 50° C.): consistent with Form F
